# According to patent publication US20230293551A1, “USE OF OXYGENATED CHOLESTEROL SULFATES FOR TREATING AUTOIMMUNE CONDITIONS” (Durect Corporation, priority 2020, published 2023):
# Tests used:
# [1] = Metabolite profiling of plasma, urine, feces after intravenous dose; assay type: in vivo, rats
# Protocol: (§1) Nine male Sprague Dawley rats (Group 1) were designated for the pharmacokinetic phase, 3 male Sprague Dawley rats (Group 2) for the excretion mass balance phase, and 7 male Sprague Dawley rats (Group 3) and 9 male Long Evans rats (Group 4) for the tissue distribution phase. All animals received a single intravenous dose of [^14C]-25HC3S at 10 mg/kg and a target radioactivity of 225 µCi/kg. Blood samples were collected from all Group 1 animals at approximately 0.083, 0.25, 0.5, 1, 2, 4, 8, 12, 24, 48, and 72 hours post-dose. Urine and feces were collected from all Group 2 animals periodically through 168 hours post-dose. […] Following blood collection, animals were euthanized by CO2 inhalation and carcasses frozen in a dry ice/hexane bath for processing by quantitative whole body autoradiography. Whole blood, plasma, urine, feces, cage rinse, and cage wash were analyzed for total radioactivity by liquid scintillation counting.
# DNMT1/3a/3b = assay: Enzyme kinetic study, overall statements on DNMT1/3a/3b activities; assay type: biochemical
# Protocol: (§3) For the DNMT1 activity assay, the substrate solution, 0.001 mg/ml Poly(dI-dC):Poly(dI-dC) in 50 mM Tris-HCl, pH 7.5, 50 mM NaCl, 5 mM EDTA, 5 mM DTT, 1 mM PMSF, 5% glycerol, 0.01% Brij35, 1% DMSO was used. For the DNMT3a/3b activity assay, 0.0075 mg/ml Lambda DNA in 50 mM Tris-HCl, pH 7.5, 50 mM NaCl, 5 mM EDTA, 5 mM DTT, 1 mM PMSF, 5% glycerol, 1% DMSO, was used. The indicated DNMT1, DNMT3a, or DNMT3b was added to the appropriate substrate solution and gently mixed. […] The mixtures were first incubated for 15 min, then ^3H-SAM was added to the reaction mixture to initiate the reaction, and the mixture was incubated for 60 min at 30° C. Following incubation, the reaction mixture was finally transferred to filter-paper for detection of radioactivity counts.
# [2] = Plasma pharmacokinetics of radioactivity after single intravenous dose; assay type: in vivo, male Sprague Dawley rats; conditions: single intravenous (bolus) dose 10 mg/kg
# Source text: (§2) The objectives of this study were to determine the plasma pharmacokinetics of [4-^14C]-25HC3S-derived radioactivity in male Sprague Dawley rats, determine the routes of elimination and excretion mass balance of [4-^14C]-25HC3S-derived radioactivity in male Sprague Dawley rats, determine the tissue distribution and tissue pharmacokinetics of [4-^14C]-25HC3S-derived radioactivity using quantitative whole body autoradiography methods in male Sprague Dawley and Long Evans rats following a single intravenous (bolus) dose, and to provide plasma, urine, and fecal homogenate samples for metabolite profiling of [4-^14C]-25HC3S-derived radioactivity.
# as §1, with “µCi/kg.” for “µCi/kg. Blood samples were collected from all Group 1 animals at approximately 0.083, 0.25, 0.5, 1, 2, 4, 8, 12, 24, 48, and 72 hours post-dose. Urine and feces were collected from all Group 2 animals periodically through 168 hours post-dose.”
# [3] = Excretion mass balance after single intravenous dose; assay type: in vivo, male Sprague Dawley rats; conditions: intravenous 10 mg/kg, over 168 hours
# Source text: as §2
# as §1, with “µCi/kg.” for “µCi/kg. Blood samples were collected from all Group 1 animals at approximately 0.083, 0.25, 0.5, 1, 2, 4, 8, 12, 24, 48, and 72 hours post-dose. Urine and feces were collected from all Group 2 animals periodically through 168 hours post-dose.”
# [4] = Tissue distribution by quantitative whole body autoradiography after intravenous dose; assay type: in vivo, male Sprague Dawley rats; conditions: intravenous 10 mg/kg
# Source text: as §2, §1
# [5] = Tissue distribution after intravenous dose in pigmented rats; assay type: in vivo, male Long Evans rats; conditions: intravenous 10 mg/kg, first 168 hours post-dose
# Source text: as §2
# as §1, with “µCi/kg.” for “µCi/kg. Blood samples were collected from all Group 1 animals at approximately 0.083, 0.25, 0.5, 1, 2, 4, 8, 12, 24, 48, and 72 hours post-dose. Urine and feces were collected from all Group 2 animals periodically through 168 hours post-dose.”
# [6] = Plasma pharmacokinetics of radioactivity after single oral (gavage) dose; assay type: in vivo, rats; conditions: single oral (gavage) dose 75 mg/kg
# Protocol: The terminal elimination phase T½ was 27.3 hours.
# [7] = Tissue distribution by quantitative whole body autoradiography after oral dose; assay type: in vivo, male Sprague Dawley rats; conditions: oral 75 mg/kg
# DNMT1 = DNMT1 (Homo sapiens, UniProt P26358); assay: DNMT1 activity assay (3H-SAM, filter-paper radioactivity); assay type: biochemical
# DNMT1, sequence (P26358 whole entry, species assumed): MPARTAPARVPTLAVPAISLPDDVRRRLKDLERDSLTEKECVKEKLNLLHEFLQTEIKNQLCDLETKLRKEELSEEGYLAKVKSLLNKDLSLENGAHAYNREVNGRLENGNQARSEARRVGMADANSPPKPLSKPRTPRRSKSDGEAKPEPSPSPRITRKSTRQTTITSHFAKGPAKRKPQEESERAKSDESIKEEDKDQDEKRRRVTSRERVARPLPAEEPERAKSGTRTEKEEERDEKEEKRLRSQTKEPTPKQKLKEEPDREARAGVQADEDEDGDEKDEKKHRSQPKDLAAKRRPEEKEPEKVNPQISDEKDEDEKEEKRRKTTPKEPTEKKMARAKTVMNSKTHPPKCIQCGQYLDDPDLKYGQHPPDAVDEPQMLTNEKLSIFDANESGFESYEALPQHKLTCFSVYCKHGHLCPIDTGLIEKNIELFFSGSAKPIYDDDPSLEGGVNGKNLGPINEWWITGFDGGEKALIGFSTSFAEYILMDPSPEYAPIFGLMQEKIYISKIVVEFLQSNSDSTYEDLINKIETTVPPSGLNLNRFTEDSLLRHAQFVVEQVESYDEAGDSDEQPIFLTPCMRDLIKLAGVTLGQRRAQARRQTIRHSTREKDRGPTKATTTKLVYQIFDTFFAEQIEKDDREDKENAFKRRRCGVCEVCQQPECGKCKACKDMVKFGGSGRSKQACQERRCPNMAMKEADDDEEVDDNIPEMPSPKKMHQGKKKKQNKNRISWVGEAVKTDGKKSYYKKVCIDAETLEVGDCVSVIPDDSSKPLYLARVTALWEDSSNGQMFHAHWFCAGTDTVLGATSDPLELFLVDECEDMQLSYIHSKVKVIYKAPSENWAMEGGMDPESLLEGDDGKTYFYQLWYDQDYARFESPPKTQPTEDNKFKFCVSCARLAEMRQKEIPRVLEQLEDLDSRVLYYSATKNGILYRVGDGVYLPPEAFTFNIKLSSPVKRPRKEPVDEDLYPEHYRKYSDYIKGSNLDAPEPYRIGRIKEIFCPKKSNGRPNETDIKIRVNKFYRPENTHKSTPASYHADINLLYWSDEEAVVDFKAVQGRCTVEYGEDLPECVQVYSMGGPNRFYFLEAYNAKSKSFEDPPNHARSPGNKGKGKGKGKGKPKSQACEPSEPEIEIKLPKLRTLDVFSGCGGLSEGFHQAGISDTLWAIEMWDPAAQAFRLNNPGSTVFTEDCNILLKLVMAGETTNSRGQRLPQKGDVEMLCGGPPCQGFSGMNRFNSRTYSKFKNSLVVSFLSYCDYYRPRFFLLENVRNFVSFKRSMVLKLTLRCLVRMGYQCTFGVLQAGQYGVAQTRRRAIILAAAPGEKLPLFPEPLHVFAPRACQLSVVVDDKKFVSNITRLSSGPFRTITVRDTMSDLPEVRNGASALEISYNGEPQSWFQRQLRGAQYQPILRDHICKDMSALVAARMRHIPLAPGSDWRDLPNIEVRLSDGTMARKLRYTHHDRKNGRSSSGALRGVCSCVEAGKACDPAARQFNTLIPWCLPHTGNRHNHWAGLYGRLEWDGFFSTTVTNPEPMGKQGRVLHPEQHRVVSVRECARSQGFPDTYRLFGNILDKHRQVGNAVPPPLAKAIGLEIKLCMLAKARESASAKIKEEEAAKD
# Protocol: as §3
# [8] = Metabolite profiling of plasma and feces after oral dose; assay type: in vivo, rats; conditions: oral 75 mg/kg
# Source text: Radiolabeled components in plasma and feces extracts were profiled and identified using radio-high performance liquid chromatography (HPLC) and high performance liquid chromatography/mass spectrometry (HPLC/MS) methods.
compound,measurement,setting,value
desmosterol sulfate,"detection in plasma, urine, or feces samples",[1],Neither desmosterol sulfate nor 25-hydroxycholesterol was detected
"CC(C)CCC[C@@H](C)[C@H]1CC[C@H]2[C@@H]3CC=C4C[C@@H](OS(=O)(=O)O)CC[C@]4(C)[C@H]3CC[C@]12C [Xol3S, Cholesterol 3-Sulfate, reference compound]",effect on enzymatic activities (DNMTs),DNMT1/3a/3b,did not significantly affect enzymatic activities
C[C@H](CCCC(C)(C)O)[C@H]1CC[C@H]2[C@@H]3CC=C4[14CH2][C@@H](OS(=O)(=O)O)CC[C@]4(C)[C@H]3CC[C@]12C [[4-^14C]-25HC3S],terminal elimination phase T½,[2],26.6 h
same,recovered radioactivity in feces,[3],83.0%
same,AUClast in the liver,[4],"≤ 364,000 h.ng/g"
same,plasma:whole blood AUClast ratio,[4],0.79
same,tissue distribution of radioactivity,[4],broadly distributed and detected by quantitative whole body autoradiography in all tissues except the eye (lens)
same,"tissue:plasma ratio, liver",[4]; calculated using AUClast,11.4
same,"tissue:plasma ratio, small intestine (wall)",[4]; calculated using AUClast,7.44
same,plasma or whole blood concentrations versus Sprague Dawley rats,[5],no substantial difference in plasma or whole blood concentrations
same,plasma AUClast,[6],"96,400 h•ng equiv./g"
same,Uveal tract and brain concentrations,[7],approximately 1000 ng equiv./g
same,plasma:whole blood AUClast ratio,[7],1.12
same,tissue Tmax,[7],≤ 6 hours postdose
same,tissue distribution of radioactivity,[7],broadly distributed and detected by quantitative whole body autoradiography in all tissues except the eye (lens)
same,whole blood AUClast,[7],"127,000 h•ng equiv./g"
same,"tissue:plasma ratio, adrenal gland",[7]; calculated using AUClast,6.64
same,"tissue:plasma ratio, liver",[7]; calculated using AUClast,6.96
same,"tissue:plasma ratio, small intestine (wall)",[7]; calculated using AUClast,15.4
"CC(CO)CCC[C@@H](C)[C@H]1CC[C@H]2[C@@H]3CC=C4C[C@@H](OS(=O)(=O)O)CC[C@]4(C)[C@H]3CC[C@]12C (stereo partly drawn) [27HC3S, 27-hydroxycholesterol-3-sulfate]",effect on enzymatic activities (DNMTs),DNMT1/3a/3b,potent inhibitors of DNMTs
"C[C@H](CCCC(C)(C)O)[C@H]1CC[C@H]2[C@@H]3CC=C4C[C@@H](OS(=O)(=O)O)CC[C@]4(C)[C@H]3CC[C@]12C [25HC3S, 25-hydroxycholesterol-3-sulfate]",effect on enzymatic activities (DNMTs),DNMT1/3a/3b,potent inhibitors of DNMTs
same,IC50,"DNMT1/3a/3b; DNMT-1, 3a, 3b, read-out: IC50s (kinetic study)",1 to 10 µM
same,% of dose in feces,[1]; pools 0 to 48 hours postdose,2 % of dose
same,share of the exposure (AUC) to 25HC3S related radioactivity in plasma,[1]; up to 1 hour postdose,approximately 54%
"CC(C)CCC[C@@H](C)[C@H]1CC[C@H]2[C@@H]3CC=C4C[C@@H](O)CC[C@]4(C)[C@H]3CC[C@]12C [Xol, Cholesterol]",effect on enzymatic activities (DNMTs),DNMT1/3a/3b,did not significantly affect enzymatic activities
"C[C@H](CCCC(C)(C)O)[C@H]1CC[C@H]2[C@@H]3CC=C4C[C@@H](O)CC[C@]4(C)[C@H]3CC[C@]12C [25HC, 25-Hydroxycholesterol]",activates DNMT-1 activity,DNMT1,8 fold
same,"detection in plasma, urine, or feces samples",[1],Neither desmosterol sulfate nor 25-hydroxycholesterol was detected
same,relative observed intensity (ROI) in plasma,[8]; 2 hour postdose plasma,37%
same,% of total dose in feces,[8]; pools 0 to 168 hours postdose,1.9 % of total dose
"C[C@@H](CO)CCC[C@@H](C)[C@H]1CC[C@H]2[C@@H]3CC=C4C[C@@H](O)CC[C@]4(C)[C@H]3CC[C@]12C [27HC, 27-Hydroxycholesterol, reference compound]",effect on enzymatic activities (DNMTs),DNMT1/3a/3b,had no effect on other enzymes
